pIC50: −log10 of the molar value. Calls of active or inactive are those of the source. The rule behind the calls is not given here. Bounds are passed on as bounds.

The first experiment deals with T1, Serine/threonine-protein kinase Chk1 (Homo sapiens) (UniProt O14757).
T1 sequence (whole entry): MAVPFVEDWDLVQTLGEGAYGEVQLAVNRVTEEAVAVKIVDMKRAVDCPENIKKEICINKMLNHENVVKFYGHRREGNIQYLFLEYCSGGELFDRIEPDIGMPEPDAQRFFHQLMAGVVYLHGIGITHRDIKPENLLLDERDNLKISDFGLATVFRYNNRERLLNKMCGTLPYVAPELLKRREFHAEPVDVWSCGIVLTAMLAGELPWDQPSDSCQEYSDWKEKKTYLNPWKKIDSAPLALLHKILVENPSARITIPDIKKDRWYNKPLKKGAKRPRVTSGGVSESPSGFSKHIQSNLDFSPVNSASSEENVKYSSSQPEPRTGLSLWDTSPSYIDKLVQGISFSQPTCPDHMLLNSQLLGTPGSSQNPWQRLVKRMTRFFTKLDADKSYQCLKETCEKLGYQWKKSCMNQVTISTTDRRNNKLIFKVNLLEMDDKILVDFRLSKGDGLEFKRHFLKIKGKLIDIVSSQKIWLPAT
Kind of experiment: Competitive inhibition of immobilized Chk1 at 11 nM incubated for 30 mins followed by 24 hrs washout by HTRF assay in presence of 100 uM ATP. (TR-FRET usually uses a lanthanide donor and a delayed reading to cut background.)
Regarding `NCCNC(=O)c1cncc(-c2cnc(Nc3cc(N4CCC(F)(F)CC4)ccn3)s2)c1`, the inhibition result is “Active”.

Another experiment has as its target T2, Serine/threonine-protein kinase Chk1 (Homo sapiens, UniProt O14757).
T2 sequence (O14757 whole entry): T1 sequence (whole entry)
In words: Competitive inhibition of Chk1 in presence of higher ATP levels.
By pIC50 is commonly meant the negative decadic logarithm of the IC50, by convention in mol/L. Consider `c1cc(N2CCNCC2)cc(Nc2ncc(-c3cncc(-c4cn[nH]c4)c3)s2)n1`, for which the negative logarithm of the IC50 (pIC50) is 8.10. Still for that read-out and setting: the result for `Cc1ncc(-c2cnc(Nc3cccc(N4CCNCC4)n3)s2)cn1` reads 6.92; that for `c1ncc(-c2cncc(-c3cnc(Nc4cc(N5CCOCC5)ccn4)s3)c2)cn1`, 7.43. Same read-out and setting: the result for `OCCNc1ccnc(Nc2ncc(-c3cncnc3)s2)c1` reads 7.05. `OCC#Cc1cncc(-c2cnc(Nc3cc(N4CCOCC4)ccn3)s2)c1`: the pIC50 was 8.22. Still for that read-out and setting: the result for `CC(=O)N1CCN(c2ccnc(Nc3ncc(-c4ccc(C)nc4)s3)c2)CC1` reads 6.69; that for `Cc1ccc(-c2cnc(Nc3cc(N4CCN(S(C)(=O)=O)CC4)ccn3)s2)cn1`, 6.95; that for `CNCCNC(=O)c1cncc(-c2cnc(Nc3cc(N4CCOCC4)ccn3)s2)c1`, 9.00. Still for that read-out and setting: the result for `Brc1cccc(-c2cnc(Nc3cc(N4CCNCC4)ccn3)s2)c1` reads below 5.98; that for `c1cncc(-c2cncc(-c3cnc(Nc4cc(N5CCOCC5)ccn4)s3)c2)c1`, 7.72; that for `CC(=O)N1CCN(c2ccnc(Nc3ncc(-c4cncc(C(=O)NCCN)c4)s3)c2)CC1`, 10.52. As for `NCCC(=O)c1cncc(-c2cnc(Nc3cc(N4CCOCC4)ccn3)s2)c1`, the negative-log IC50 (pIC50) was 9.57.

On to `OCC1CN(c2ccnc(Nc3ncc(-c4cccnc4)s3)c2)CCO1` (stereo not drawn), for which the pIC50 was 7.31. Consider `CS(=O)(=O)N1CCN(c2ccnc(Nc3ncc(-c4cncnc4)s3)c2)CC1`, for which the pIC50 is 7.33. The same measure, in the same setting: the result for `NCCNC(=O)c1cncc(-c2cnc(Nc3cc(CN4CCOCC4)ccn3)s2)c1` reads 9.40; that for `COc1ncc(-c2cncc(-c3cnc(Nc4cc(N5CCOCC5)ccn4)s3)c2)cn1`, 7.22; that for `Cc1ccc(-c2cnc(Nc3cc(N4CCNCC4)ccn3)s2)cn1`, 7.43. Same read-out and setting: the result for `NCCCNC(=O)c1cncc(-c2cnc(Nc3cc(N4CCOCC4)ccn3)s2)c1` reads 8.85; that for `N#Cc1cncc(-c2cnc(Nc3cc(N4CCOCC4)ccn3)s2)c1`, 6.36; that for `NCCNC(=O)c1cncc(-c2cnc(Nc3cc(N4CCNCC4)ccn3)s2)c1`, 10.30. The same measure, in the same setting: the result for `Cc1ncc(-c2cnc(Nc3cccc(NCCCN)n3)s2)cn1` reads 7.54.

As for `Cc1ncc(-c2cnc(Nc3cc(N4CCNCC4)ccn3)s2)cn1`, the pIC50 was 7.54. The same measure, in the same setting: the result for `NCCNC(=O)c1cncc(-c2cnc(Nc3cc(N4CCC(F)(F)CC4)ccn3)s2)c1` reads 10.30. Turning to `Cc1ncc(-c2cnc(Nc3cc(N4CCOCC4)ccn3)s2)cn1`, the negative-log IC50 (pIC50) is 7.22. On the same count and under the same terms, the result for `CS(=O)(=O)N1CCN(c2ccnc(Nc3ncc(-c4cncc(C(=O)NCCN)c4)s3)c2)CC1` reads 10.52; that for `c1ccc(-c2cnc(Nc3cc(N4CCNCC4)ccn3)s2)cc1`, 6.28. Same read-out and setting: the figure for `N#Cc1cncc(-c2cnc(Nc3cc(N4CCNCC4)ccn3)s2)c1` is 7.46; for `COc1ncccc1-c1cncc(-c2cnc(Nc3cc(N4CCOCC4)ccn3)s2)c1` it is 6.46; for `NC/C=C/c1cncc(-c2cnc(Nc3cc(N4CCOCC4)ccn3)s2)c1` it is 6.49. Consider `NCCCc1cncc(-c2cnc(Nc3cc(N4CCOCC4)ccn3)s2)c1`, for which the pIC50 was 7.92. As to `c1cc(N2CCOCC2)cc(Nc2ncc(-c3cncc(-c4cn[nH]c4)c3)s2)n1`, the pIC50 is 7.46.

The next experiment addresses T1, Serine/threonine-protein kinase Chk1 (Homo sapiens). Kind of experiment: Inhibition of immobilized Chk1 at 11 nM incubated for 30 mins followed by 24 hrs washout by HTRF assay.
Turning to `NCCNC(=O)c1cncc(-c2cnc(Nc3cc(N4CCC(F)(F)CC4)ccn3)s2)c1`, the inhibition entry is “Active”.

The record behind these values is ChEMBL document CHEMBL2010744, “Pyridyl aminothiazoles as potent inhibitors of Chk1 with slow dissociation rates” (Bioorg Med Chem Lett, 2012).
